Values quoted from earlier work as cited in patent US20230080958A1, “METHODS OF TREATING PSEUDOBULBAR AFFECT AND OTHER EMOTIONAL DISTURBANCES” (Woolsey Pharmaceuticals, Inc., priority 2020, published 2023).

Tests used:
[1] = 1-hydroxy (M3) metabolite, in vivo (Shibuya 2001)
[2] = tested on: patients with sub-cortical vascular dementia

Compound | half-life [1] | emotional incontinence (compulsive laughing and/or crying) ([2]; Kamei publication and Japanese patent application 6-293643, three patients, no assessment or diagnosis of PBA) | wandering (primary outcome) ([2]; two patients with sub-cortical vascular dementia, open-label, no control group, concomitant medications (Kamei 1996))
O=S(=O)(c1cccc2c(O)nccc12)N1CCCNCC1 [M3] | about 8 hours |  | 
O=S(=O)(c1cccc2cnccc12)N1CCCNCC1 [fasudil, hexahydro-1-(5-isoquinolinesulfonyl)-1H-1,4-diazepine] |  | improvements | mitigated wandering
